Values of other authors as cited in patent US12225905B2, “Antimicrobial superabsorbent compositions” (Matoke Holdings Limited, priority 2017, dated 2025).

Conditions: 20° C. and 1 atm

- solubility: about 375 g/100 g water
SMILES: O=C(CO)[C@@H](O)[C@H](O)[C@H](O)CO [Fructose]
